What all share (assay): relative viability (nuclei count vs DMSO), 5 days (fraction); higher = more cells survive
Compound in the experiment “RAF265 + Foretinib”: Cn1c(Nc2ccc(C(F)(F)F)cc2)nc2cc(Oc3ccnc(-c4ncc(C(F)(F)F)[nH]4)c3)ccc21 [RAF265] + COc1cc2c(Oc3ccc(NC(=O)C4(C(=O)Nc5ccc(F)cc5)CC4)cc3F)ccnc2cc1OCCCN1CCOCC1 [Foretinib] (partner 0.25 µM)
A digest of the protocol:
(§1)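 The day after seeding in 1536-well plates, lung cancer cell lines were treated by pin tool with a single drug, or with a fixed anchor-drug dose together with five library-drug doses (not always all listed) in √10 steps. After 5 days, a combined fix-and-stain solution (final 0.05% Triton X-100, 1% formaldehyde, 1 ug/ml Hoechst) was added. Nuclei counted on 4× images gave relative viability as treated counts over vehicle counts, reported as the median of duplicate plates.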

Compound in the experiment “IPA-3 + OSI-027”: C1=CC=C2C(=C1)C=CC(=C2SSC3=C(C=CC4=CC=CC=C43)O)O [IPA-3] + COc1cccc2cc(-c3nc([C@H]4CC[C@H](C(=O)O)CC4)n4ncnc(N)c34)[nH]c12 [OSI-027] (partner 0.5 µM)
The gist of the method: as §1

Compound in the experiment “IPA-3 + Decitabine”: C1=CC=C2C(=C1)C=CC(=C2SSC3=C(C=CC4=CC=CC=C43)O)O [IPA-3] + Nc1ncn([C@H]2C[C@H](O)[C@@H](CO)O2)c(=O)n1 [Decitabine] (partner 2 µM)
The gist of the method:
as §1

Compound in the experiment “Doramapimod + Decitabine”: Cc1ccc(-n2nc(C(C)(C)C)cc2NC(=O)Nc2ccc(OCCN3CCOCC3)c3ccccc23)cc1 [Doramapimod] + Nc1ncn([C@H]2C[C@H](O)[C@@H](CO)O2)c(=O)n1 [Decitabine] (partner 2 µM)
A digest of the protocol: as §1

Take CAL-12T: the relative viability was 1.26 in the experiment with RAF265 + Foretinib (first compound 0.01 µM); 1.12 in the experiment with RAF265 + Foretinib (first compound 0.03162 µM); 1.01 with RAF265 + Foretinib (first compound 0.1 µM); 0.924 with RAF265 + Foretinib (first compound 0.3162 µM); 0.746 with RAF265 + Foretinib (first compound 1 µM); 0.884 with IPA-3 + OSI-027 (first compound 0.2 µM). Also, the relative viability with IPA-3 + OSI-027 (first compound 0.6325 µM) was 0.63; with IPA-3 + OSI-027 (first compound 2 µM), 0.676; in the experiment with IPA-3 + OSI-027 (first compound 6.325 µM), 0.475; in the experiment with IPA-3 + OSI-027 (first compound 20 µM), 0.656.

With COR-L23, the relative viability amounted to 1.01 with RAF265 + Foretinib (first compound 0.01 µM); 0.962 with RAF265 + Foretinib (first compound 0.03162 µM); 0.864 in the experiment with RAF265 + Foretinib (first compound 0.1 µM); 0.893 in the experiment with RAF265 + Foretinib (first compound 0.3162 µM); 0.644 with RAF265 + Foretinib (first compound 1 µM); 1.05 with IPA-3 + OSI-027 (first compound 0.2 µM). The relative viability came out at 0.771 with IPA-3 + OSI-027 (first compound 0.6325 µM); 0.795 in the experiment with IPA-3 + OSI-027 (first compound 2 µM); 0.696 with IPA-3 + OSI-027 (first compound 6.325 µM); 0.552 with IPA-3 + OSI-027 (first compound 20 µM); 0.553 in the experiment with IPA-3 + Decitabine (first compound 0.2 µM); 0.469 in the experiment with IPA-3 + Decitabine (first compound 0.6325 µM). The relative viability with IPA-3 + Decitabine (first compound 2 µM) turned out to be 0.41; with IPA-3 + Decitabine (first compound 6.325 µM) it was 0.419; with IPA-3 + Decitabine (first compound 20 µM) it was 0.256; with Doramapimod + Decitabine (first compound 0.02 µM) it was 0.409; in the experiment with Doramapimod + Decitabine (first compound 0.06325 µM) it was 0.412; with Doramapimod + Decitabine (first compound 0.2 µM), 0.507. Also, the relative viability amounted to 0.432 with Doramapimod + Decitabine (first compound 0.6325 µM) and 0.41 with Doramapimod + Decitabine (first compound 2 µM).

As to COR-L 105, the relative viability in the experiment with RAF265 + Foretinib (first compound 0.01 µM) is 1.29; with RAF265 + Foretinib (first compound 0.03162 µM), 1.5; with RAF265 + Foretinib (first compound 0.1 µM), 1.1; with RAF265 + Foretinib (first compound 0.3162 µM) it was 1.15; with RAF265 + Foretinib (first compound 1 µM) it was 0.614; with IPA-3 + OSI-027 (first compound 0.2 µM), 0.9. The relative viability with IPA-3 + OSI-027 (first compound 0.6325 µM) is 0.569; in the experiment with IPA-3 + OSI-027 (first compound 2 µM), 0.603; with IPA-3 + OSI-027 (first compound 6.325 µM), 0.74; in the experiment with IPA-3 + OSI-027 (first compound 20 µM), 0.738; in the experiment with IPA-3 + Decitabine (first compound 0.2 µM), 0.652; with IPA-3 + Decitabine (first compound 0.6325 µM) it was 0.609. The relative viability is 0.657 with IPA-3 + Decitabine (first compound 2 µM); 0.66 with IPA-3 + Decitabine (first compound 6.325 µM); 0.649 in the experiment with IPA-3 + Decitabine (first compound 20 µM); 0.602 with Doramapimod + Decitabine (first compound 0.02 µM); 0.641 in the experiment with Doramapimod + Decitabine (first compound 0.06325 µM); 0.718 in the experiment with Doramapimod + Decitabine (first compound 0.2 µM). In addition, the relative viability in the experiment with Doramapimod + Decitabine (first compound 0.6325 µM) came to 0.802; with Doramapimod + Decitabine (first compound 2 µM), 0.676.

With Calu-6, the relative viability in the experiment with RAF265 + Foretinib (first compound 0.01 µM) was determined as 0.899; in the experiment with RAF265 + Foretinib (first compound 0.03162 µM) it was 0.782; in the experiment with RAF265 + Foretinib (first compound 0.1 µM), 0.763; with RAF265 + Foretinib (first compound 0.3162 µM), 0.428; in the experiment with RAF265 + Foretinib (first compound 1 µM), 0.29.

Turning to ChaGo-K-1, the relative viability with RAF265 + Foretinib (first compound 0.01 µM) stood at 0.969; with RAF265 + Foretinib (first compound 0.03162 µM), 0.827; with RAF265 + Foretinib (first compound 0.1 µM) it was 0.825; with RAF265 + Foretinib (first compound 0.3162 µM) it was 0.819; with RAF265 + Foretinib (first compound 1 µM) it was 0.646; with IPA-3 + OSI-027 (first compound 0.2 µM), 0.708. Further, the relative viability with IPA-3 + OSI-027 (first compound 0.6325 µM) came to 0.551; with IPA-3 + OSI-027 (first compound 2 µM) it was 0.574; in the experiment with IPA-3 + OSI-027 (first compound 6.325 µM), 0.603; in the experiment with IPA-3 + OSI-027 (first compound 20 µM) it was 0.628; with IPA-3 + Decitabine (first compound 0.2 µM) it was 0.536; in the experiment with IPA-3 + Decitabine (first compound 0.6325 µM), 0.479. Moreover, the relative viability in the experiment with IPA-3 + Decitabine (first compound 2 µM) stood at 0.503; with IPA-3 + Decitabine (first compound 6.325 µM) it was 0.509; in the experiment with IPA-3 + Decitabine (first compound 20 µM) it was 0.487; with Doramapimod + Decitabine (first compound 0.02 µM), 0.555; with Doramapimod + Decitabine (first compound 0.06325 µM), 0.54; in the experiment with Doramapimod + Decitabine (first compound 0.2 µM) it was 0.541. The relative viability was determined as 0.49 in the experiment with Doramapimod + Decitabine (first compound 0.6325 µM) and 0.503 with Doramapimod + Decitabine (first compound 2 µM).

The record behind these values is the supplement of paper PMC10307832.
